This is an account of results in US20240382483A1, “HETEROCYCLIC EGFR INHIBITORS FOR USE IN THE TREATMENT OF CANCER” (Blueprint Medicines Corporation, priority 2021, published 2024).

The target of test [1] is T1, intracellular phosphorylation of EGFR in NCI-H1975 cell line that harbors the EGFR L858R T790M mutations (Homo sapiens, UniProt P00533, L858R/T790M).
T1 construct: NCI-H1975 cell line that harbors the EGFR L858R T790M mutations (ATCC, CRL-5908); host or cells: NCI-H1975
Nature of the test: NCI-H1975 pEGFR AlphaLISA assay. The note with it: NCI-H1975 cells (EGFR L858R T790M), p-EGFR (Tyr1068), 4-5 hours incubation; read-out: Ext pEGFR H1975 GMean IC50 (nM) Protocol: @Pharmaron AlphaLISA (Num). It counts as cell-based. As to the method:
On the next day, the test compounds and DMSO control were added into H1975 cell plate followed by incubation at 37C/5% CO2 for 4-5 hours. […] Then 5 μL of a donor bead mix was added to each well followed by overnight incubation at room temperature in dark. On the next day, the plate was read at a compatible plate reader to obtain pEGFR signal. Percent of pEGFR inhibition was plotted against log concentration of compounds to generate IC50 values.
A general note: Alpha assays give light when donor and acceptor beads are brought close together.

The next test concerns the target T2, EGFR (L858R T790M C797S) (Homo sapiens, UniProt P00533, C797S/L858R/T790M).
T2 construct: purchased SignalChem E10-122VG
Nature of the test: Biochemical EGFR inhibition assay (Caliper mobility shift), EGFR LRTMCS. How it is done:
Reactions proceeded until between 10% to 20% total peptides were phosphorylated at room temperature (25° C.) and were terminated with 35 mM 2,2′,2″,2′″-(ethane-1,2-diyldinitrilo)tetraacetic acid (EDTA). Product was detected using the Caliper mobility shift detection method where the phosphorylated peptide (product) and substrate were electrophoretically separated and measured. Percent activity was plotted against log concentration of compound and points to generate an apparent IC50.

Where [2] appears, read: LRTMCS (PH) IC50 (nM) @ 1 mM ATP (Num), EGFR LRTMCS mutant.

Read-outs that look alike come from different tables or passages of the source. A value given as a limit tells only on which side of the number the result lay.

T1 sequence (P00533 25-1210 T790M/L858R): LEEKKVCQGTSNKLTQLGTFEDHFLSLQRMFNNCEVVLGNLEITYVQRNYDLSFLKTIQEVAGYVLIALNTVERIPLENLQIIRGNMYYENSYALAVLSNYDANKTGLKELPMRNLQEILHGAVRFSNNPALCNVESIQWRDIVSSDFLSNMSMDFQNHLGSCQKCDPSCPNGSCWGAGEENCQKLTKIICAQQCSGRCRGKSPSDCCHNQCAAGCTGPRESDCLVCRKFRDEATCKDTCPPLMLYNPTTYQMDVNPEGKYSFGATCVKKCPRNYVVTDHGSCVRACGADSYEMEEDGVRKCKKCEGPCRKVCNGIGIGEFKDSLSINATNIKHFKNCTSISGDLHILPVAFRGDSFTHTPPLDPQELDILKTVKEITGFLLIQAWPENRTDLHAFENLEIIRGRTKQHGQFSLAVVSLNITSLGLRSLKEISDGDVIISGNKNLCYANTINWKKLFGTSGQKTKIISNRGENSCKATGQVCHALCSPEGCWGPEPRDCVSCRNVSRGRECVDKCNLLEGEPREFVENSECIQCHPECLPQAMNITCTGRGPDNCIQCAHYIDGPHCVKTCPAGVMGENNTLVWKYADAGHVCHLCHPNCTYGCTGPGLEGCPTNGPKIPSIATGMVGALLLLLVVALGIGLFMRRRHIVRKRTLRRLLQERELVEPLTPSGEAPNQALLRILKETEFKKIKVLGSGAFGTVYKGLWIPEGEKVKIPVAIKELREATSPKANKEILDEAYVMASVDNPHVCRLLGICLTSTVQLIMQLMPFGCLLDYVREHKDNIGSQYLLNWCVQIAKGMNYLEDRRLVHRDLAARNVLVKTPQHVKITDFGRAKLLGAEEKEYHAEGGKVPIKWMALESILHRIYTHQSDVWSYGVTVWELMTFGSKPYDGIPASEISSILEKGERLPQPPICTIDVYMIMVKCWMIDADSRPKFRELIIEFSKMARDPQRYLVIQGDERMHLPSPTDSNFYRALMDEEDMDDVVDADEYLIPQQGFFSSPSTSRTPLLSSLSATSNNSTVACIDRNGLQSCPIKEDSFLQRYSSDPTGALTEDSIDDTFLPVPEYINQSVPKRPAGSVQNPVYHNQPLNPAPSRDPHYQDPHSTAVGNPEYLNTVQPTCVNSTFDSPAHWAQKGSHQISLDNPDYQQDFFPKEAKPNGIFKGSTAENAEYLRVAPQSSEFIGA
T2 sequence (P00533 25-1210 T790M/C797S/L858R): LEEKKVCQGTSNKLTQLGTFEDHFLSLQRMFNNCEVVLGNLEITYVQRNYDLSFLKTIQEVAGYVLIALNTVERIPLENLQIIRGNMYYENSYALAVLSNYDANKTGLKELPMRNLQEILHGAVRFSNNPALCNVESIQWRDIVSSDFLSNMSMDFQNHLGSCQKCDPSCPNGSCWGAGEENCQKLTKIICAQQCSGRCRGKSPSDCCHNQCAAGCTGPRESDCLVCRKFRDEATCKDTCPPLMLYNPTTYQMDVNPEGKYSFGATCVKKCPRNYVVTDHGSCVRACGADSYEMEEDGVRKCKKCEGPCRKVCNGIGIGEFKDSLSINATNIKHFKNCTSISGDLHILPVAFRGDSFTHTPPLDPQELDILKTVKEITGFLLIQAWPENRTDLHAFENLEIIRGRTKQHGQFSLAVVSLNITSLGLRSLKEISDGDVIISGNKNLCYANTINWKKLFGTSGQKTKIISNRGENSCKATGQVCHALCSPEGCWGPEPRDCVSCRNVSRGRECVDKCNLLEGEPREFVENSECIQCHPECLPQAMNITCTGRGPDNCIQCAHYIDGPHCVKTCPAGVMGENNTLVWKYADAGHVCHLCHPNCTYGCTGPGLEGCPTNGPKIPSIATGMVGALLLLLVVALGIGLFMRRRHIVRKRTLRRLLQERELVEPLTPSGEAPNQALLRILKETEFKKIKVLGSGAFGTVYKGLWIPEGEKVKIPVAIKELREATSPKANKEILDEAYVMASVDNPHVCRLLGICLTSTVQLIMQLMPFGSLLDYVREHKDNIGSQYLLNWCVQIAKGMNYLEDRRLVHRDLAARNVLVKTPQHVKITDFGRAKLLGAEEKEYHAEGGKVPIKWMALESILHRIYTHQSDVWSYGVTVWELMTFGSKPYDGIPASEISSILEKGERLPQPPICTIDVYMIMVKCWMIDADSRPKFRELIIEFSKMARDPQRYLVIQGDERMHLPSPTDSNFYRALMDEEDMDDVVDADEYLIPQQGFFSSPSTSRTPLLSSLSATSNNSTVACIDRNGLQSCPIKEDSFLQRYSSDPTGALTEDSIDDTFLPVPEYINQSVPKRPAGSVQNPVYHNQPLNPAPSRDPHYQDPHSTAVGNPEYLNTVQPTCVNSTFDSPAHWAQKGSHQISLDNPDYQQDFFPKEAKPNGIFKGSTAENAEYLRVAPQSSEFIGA

In the case of `CC(C)c1cnc(N2C[C@@H](F)[C@H]2C)c2cnc(Nc3ccnc(N4CC[C@@H](O)[C@@](C)(F)C4)n3)cc12` (single isomer, unassigned) [Example 33, (3S,4R)-3-fluoro-1-(4-((8-((2R,3R)-3-fluoro-2-methylazetidin-1-yl)-5-isopropyl-2,7-naphthyridin-3-yl)amino)pyrimidin-2-yl)-3-methylpiperidin-4-ol or (3S,4R)-3-fluoro-1-(4-((8-((2S,3S)-3-fluoro-2-methylazetidin-1-yl)-5-isopropyl-2,7-naphthyridin-3-yl)amino)pyrimidin-2-yl)-3-methylpiperidin-4-ol], the IC50 (as a rule, the concentration that inhibits the measured activity by half) is below 10 nM in test [1] and below 15 nM at EGFR (L858R T790M C797S) (setting [2]).

On to `CC(C)c1cnc(N2C[C@@H](F)[C@@H]2C)c2cnc(Nc3ccnc(N4CC[C@@H](O)[C@@](C)(F)C4)n3)cc12` (single isomer, unassigned) [Example 34, (3S,4R)-3-fluoro-1-(4-((8-((2S,3R)-3-fluoro-2-methylazetidin-1-yl)-5-isopropyl-2,7-naphthyridin-3-yl)amino)pyrimidin-2-yl)-3-methylpiperidin-4-ol or (3S,4R)-3-fluoro-1-(4-((8-((2R,3S)-3-fluoro-2-methylazetidin-1-yl)-5-isopropyl-2,7-naphthyridin-3-yl)amino)pyrimidin-2-yl)-3-methylpiperidin-4-ol], for which the figures for the IC50 (in test [1]; at EGFR (L858R T790M C797S) (setting [2])) were above 50 nM and below 15 nM, respectively.

For the compound `C[C@H](CC#N)c1cnc(N2CC[C@H]2C)c2cnc(Nc3ccnc(N4CC[C@@H](O)[C@@](C)(F)C4)n3)cc12` (single isomer, unassigned) [Example 36, (R)-3-(6-((2-((3S,4R)-3-fluoro-4-hydroxy-3-methylpiperidin-1-yl)pyrimidin-4-yl)amino)-1-((R)-2-methylazetidin-1-yl)-2,7-naphthyridin-4-yl)butanenitrile or (S)-3-(6-((2-((3S,4R)-3-fluoro-4-hydroxy-3-methylpiperidin-1-yl)pyrimidin-4-yl)amino)-1-((R)-2-methylazetidin-1-yl)-2,7-naphthyridin-4-yl)butanenitrile], the IC50 in test [1] was below 10 nM; at EGFR (L858R T790M C797S) (setting [2]), below 15 nM.

Regarding `C[C@H](CC#N)c1cnc(N2CC[C@H]2C)c2cnc(Nc3ccnc(N4CC[C@@H](O)[C@@](C)(F)C4)n3)cc12` (single isomer, unassigned) [Example 37, (R)-3-(6-((2-((3S,4R)-3-fluoro-4-hydroxy-3-methylpiperidin-1-yl)pyrimidin-4-yl)amino)-1-((R)-2-methylazetidin-1-yl)-2,7-naphthyridin-4-yl)butanenitrile or (S)-3-(6-((2-((3S,4R)-3-fluoro-4-hydroxy-3-methylpiperidin-1-yl)pyrimidin-4-yl)amino)-1-((R)-2-methylazetidin-1-yl)-2,7-naphthyridin-4-yl)butanenitrile], the IC50 is 10 to 20 nM in test [1] and below 15 nM at EGFR (L858R T790M C797S) (read-out: LRTMCS (PH) IC50 (nM) @ 1 mM ATP (Num), EGFR LRTMCS mutant).

As for `CO[C@H]1CCN(c2nccc(Nc3cc4c(C(C)C)cnc(N5CCC56CN(C)C6)c4cn3)n2)C[C@@]1(C)F` (single isomer, unassigned) [Example 43, N-(2-((3R,4S)-3-fluoro-4-methoxy-3-methylpiperidin-1-yl)pyrimidin-4-yl)-5-isopropyl-8-(6-methyl-1,6-diazaspiro[3.3]heptan-1-yl)-2,7-naphthyridin-3-amine or N-(2-((3S,4R)-3-fluoro-4-methoxy-3-methylpiperidin-1-yl)pyrimidin-4-yl)-5-isopropyl-8-(6-methyl-1,6-diazaspiro[3.3]heptan-1-yl)-2,7-naphthyridin-3-amine], the IC50 in test [1] was above 50 nM; on EGFR (L858R T790M C797S) (setting [2]), 15 to 20 nM.
